This is an account of results in US20140284278A1, “CATIONIC DISPLACER MOLECULES FOR HYDROPHOBIC DISPLACEMENT CHROMATOGRAPHY” (SACHEM, INC., priority 2011, published 2014).

The conditions of data set [1]: amine pH-buffers with low pKa values; cited from earlier work.
Data set [2] can be described thus: Partitioning in two-phase diethyl ether-water extraction. The data set is classed as physicochemical. The protocol: This is a modification of Method A based on the partitioning behavior in a two-phase diethyl ether-water extraction. […] 53.4 g Purified and recrystallized N-(4-fluorobenzyl)-N-decylpyrrolidinium chloride (150 mmole, fw=355.97) is placed in a 250 mL separatory funnel followed by 53.4 g degassed, deionized water. The flask is shaken until a clear, viscous solution is formed (˜1.5 M solution). 25.6 g Trifluoroacetic (225 mmole, fw=114.02) is added to the mixture which is vigorously mixed. Immediately two phases form with the product in the lower layer. 110 mL peroxide-free diether ether is added to the separatory funnel and the mixture is vigorously mixed again. After 2 hours, the phases fully separate with the product in the upper ether phase. The lower phase is discarded and the upper is retained. 55 mL 1% trifluoroacetic acid in distilled water is added, the mixture is vigorously mixed and phases are again allowed to separate. Again, the upper phase is retained, dried over anhydrous magnesium sulfate, filtered and placed on a rotary evaporator in order to remove the ether along with residual HCl, trifluoroacetic acid and water. This procedure yields 59.2 g (91%) of a pure, clear, viscous oil (ionic liquid). This material is suitable for use as a displacer. HPLC purity of the quat cation is essentially identical to the starting material. […]

A short description of data set [3]: Hygroscopicity of crystalline salt in air. The data set is classed as physicochemical. Particulars: crystalline substance, absorbs moisture from the air. The protocol:
380.5 g Purified N-decylpyrrolidine (1.8 mole, fw=211.39) is added to 720 mL stirring acetonitrile in a 2 L, 4-neck round-bottom flask that is equipped with a heating mantle, mechanical stirrer, 500 mL addition funnel, reflux condensor and teflon-coated thermocouple. The reaction is carried out under a nitrogen atmosphere with a slow N2 purge. The stirring mixture is heated to 50° C., and 289.1 g freshly distilled 4-fluorobenzyl chloride (2.0 mole, fw=144.58) is added in a dropwise fashion over a period of about 60 minutes. The reaction mixture is then heated to about 80° C. for 8-12 hours and periodically monitored by HPLC (Method 10a) in order to ensure that the starting amine is entirely consumed. The reaction mixture is cooled to room temperature, filtered through sintered-glass and placed on a rotary evaporator to remove the solvent (acetonitrile). 1.0 L Methyl t-butyl ether (MTBE) is added portionwise with mechanical stirring to the sticky orange-yellow reaction residue. Once this mixture is fully suspended in the solvent, it is transferred to a clean 4 L Erlenmeyer flask, and an additional amount of MTBE (1.9 L) is slowly added with stirring. […] A sharp melting point in a glass capillary is measured at 137-138° C. when measured between 90-140° C. at the heating rate of 1.0° C./minute. […]

The nature of a further data set: Solubility in water. Particulars: pure water.
The conditions of data set [4]: cited from earlier work.

Each structure is given as a SMILES string. Converted amounts (≈) assume the structure as drawn. A value given as a limit tells only on which side of the number the result lay.

Usually pKa stands for the pH at which an ionisable group is half protonated. Consider `CN(C)CCN(C)C` [N,N,N′,N′-tetramethylethylene-diamine], for which, in data set [1], the pKa is listed as 5.9.
A word on the solubility: it is how much of the substance goes into solution per volume. Read a low solubility as a poorly soluble substance. For the compound `CCCCCCCCCC[N+]1(Cc2ccc(F)cc2)CCCC1.[Cl-]` [N-(4-Fluorobenzyl)-N-decylpyrrolidinium Chloride], the partitioning behavior result in data set [2] was “strongly partitions into the water layer”. In data set [3], the hygroscopicity result is listed as “very hygroscopic”. In “Solubility in water”, this compound yielded a solubility of 2000 mM.
On to `CCCCCCCCCC[N+]1(Cc2ccc(F)cc2)CCCC1.O=C([O-])C(F)(F)F` [N-(4-Fluorobenzyl)-N-decylpyrrolidinium Trifluoroacetate], for which the partitioning behavior result in data set [2] is “strongly partitions into the ether layer”. In addition, in “Solubility in water”, the solubility was roughly 120 mM.
With `CCN1CCNCC1` [N-ethylpiperazine], the pKa in data set [1] is recorded as 5.0.
Regarding `C1CCCCC1` [cyclohexane], the solubility in water in data set [4] was roughly 0.01 mM (≈ 0.842 µg/mL).
`c1ccc2ccccc2c1` [naphthalene]: in data set [4], the solubility in water is 0.2 mM (≈ 25.6 µg/mL).
For the compound `C1CC[C@H]2CCCC[C@@H]2C1` [trans-decalin], the solubility in water in data set [4] is less than 0.001 mM.
